Source: paper PMC6037691, “Selenazolyl-hydrazones as Novel Selective MAO Inhibitors With Antiproliferative and Antioxidant Activities: Experimental and In-silico Studies” (Frontiers in Chemistry, 2018)

Legend:
MAO A = biological target: T1, MAO A (Homo sapiens, UniProt P21397); assay: MAO A inhibition, discontinuous fluorimetric kynuramine assay; format: biochemical; details: for inhibition at 1 µM: 1 μM inhibitor, mean ± SD, n = 2, normalized to control
T1 construct: purchased Sigma-Aldrich
T1 sequence (P21397 1-527): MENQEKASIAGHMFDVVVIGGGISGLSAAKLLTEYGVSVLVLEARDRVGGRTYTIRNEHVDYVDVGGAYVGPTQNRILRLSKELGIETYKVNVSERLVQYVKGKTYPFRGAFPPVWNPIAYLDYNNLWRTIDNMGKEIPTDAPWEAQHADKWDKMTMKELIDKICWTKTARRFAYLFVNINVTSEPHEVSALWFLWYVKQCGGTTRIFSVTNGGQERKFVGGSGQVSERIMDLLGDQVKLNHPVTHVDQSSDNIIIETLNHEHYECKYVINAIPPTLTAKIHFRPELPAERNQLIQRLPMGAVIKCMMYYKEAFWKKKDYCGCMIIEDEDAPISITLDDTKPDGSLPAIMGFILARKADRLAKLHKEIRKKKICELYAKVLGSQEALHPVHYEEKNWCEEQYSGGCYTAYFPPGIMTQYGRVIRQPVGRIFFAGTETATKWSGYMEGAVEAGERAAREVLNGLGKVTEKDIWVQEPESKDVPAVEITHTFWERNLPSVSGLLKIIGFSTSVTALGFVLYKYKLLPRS
Protocol: (§1) MAO A and B inhibition capacities were investigated using a discontinuous fluorimetric assay (Meiring et al., [2013]) as described previously by using human recombinant membrane-bound MAO purchased from Sigma-Aldrich (Affini et al., [2018]). Briefly, remained enzyme activity with inhibitor, either 1 μM (one-point) or concentrations ranging from 0.0001 to 10 μM, was assessed in the presence of kynuramine [2 × KM, KM = 20 μM (MAO A), KM = 30 μM (MAO B)] in potassium phosphate buffer (pH 7.4). Reactions were started by addition of enzyme and stopped by manual addition of sodium hydroxide (2 N) after 20 min. Enzyme activity was determined by detection of 4-hydroxyquinoline (λEx = 320 nm, λEm = 405 nm). Data were analyzed using GraphPad PRISM 6. For one-point measurements data were calculated as percentage of control and expressed as mean ± standard deviation (%). […] Data were obtained from two (one-point measurements) or at least three (IC50 values) independent experiments, each performed in duplicates.

[1] = tested on: SW1573 (non-small cell lung); assay: Antiproliferative activity, SW1573; format: cell-based, human; details: for GI50: Homo sapiens
Protocol: (§2) The in vitro antiproliferative activity of investigated compounds was evaluated against six human solid tumor cell lines: A549 (non-small cell lung), HBL-100, (breast), HeLa (cervix), SW1573 (non-small cell lung), as drug sensitive lines, T-47D (breast) and WiDr (colon) as drug resistant lines. These cell lines were a kind gift from Prof. G. J. Peters (VU Medical Center, Amsterdam, The Netherlands). For selectivity studies, the human fibroblasts BJ-hTert cell line was used, which was obtained from Dr. R. Freire (HUC, Tenerife, Canary Islands). Cells were kept in culture medium under standard conditions: RPMI 1640 medium, fetal bovine serum (5%), glutamine (2 mM), penicillin G (100 units/mL) and streptomycin (0.1 mg/mL). Antiproliferative tests were conducted as described earlier (Skehan et al., [1990]; Miranda et al., [2006]). Tested compounds were dissolved in DMSO at an initial concentration of 40 mM. DMSO was used as negative control (0.25% v/v). Antiproliferative activity of the compounds was expressed as GI50, which is the concentration of the compound that inhibits 50% of the culture growth.

[2] = Oxygen radical absorbance capacity (ORAC) assay; details: Trolox equivalents; mean ± SD, n = 3
Protocol: A modification of original protocol was used (Ou et al., [2001]). Stock solutions of fluorescein substrate (5 μM) and free radical generator AAPH (0.5 M) were prepared in 75 mM potassium phosphate buffer (pH = 7.4). Volume of 100 μL of sample solutions or Trolox in DMSO (20 μM) were mixed with 1,485 μL of buffer and 15 μL of fluorescein solution. The 30 min reaction at 37°C was initiated by adding 250 μL of AAPH solution. Fluorescence conditions were as follows: excitation and emission wavelengths 485 and 511 nm, respectively, slits 2 nm. The relative sample ORAC value was expressed as Trolox equivalents (TE).

MAO B = biological target: T2, MAO B (Homo sapiens, UniProt P27338); assay: MAO B inhibition, discontinuous fluorimetric kynuramine assay; format: biochemical; details: for inhibition at 1 µM: 1 μM inhibitor, mean ± SD, n = 2, normalized to control
T2 construct: purchased Sigma-Aldrich
T2 sequence (P27338 1-520): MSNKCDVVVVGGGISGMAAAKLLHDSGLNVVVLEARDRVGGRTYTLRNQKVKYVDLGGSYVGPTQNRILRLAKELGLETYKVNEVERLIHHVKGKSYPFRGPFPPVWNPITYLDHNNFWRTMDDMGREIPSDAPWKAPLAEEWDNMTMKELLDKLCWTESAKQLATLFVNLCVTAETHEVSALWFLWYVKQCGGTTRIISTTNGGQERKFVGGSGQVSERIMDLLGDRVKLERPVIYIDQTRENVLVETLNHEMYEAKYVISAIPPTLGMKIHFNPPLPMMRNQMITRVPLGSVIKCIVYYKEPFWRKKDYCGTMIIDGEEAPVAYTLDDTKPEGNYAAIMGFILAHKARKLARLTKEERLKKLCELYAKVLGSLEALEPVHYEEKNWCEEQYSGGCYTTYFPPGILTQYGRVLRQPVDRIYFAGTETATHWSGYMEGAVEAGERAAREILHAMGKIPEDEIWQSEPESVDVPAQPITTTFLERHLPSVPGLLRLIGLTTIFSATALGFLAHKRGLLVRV
Protocol: as §1

[3] = Total antioxidant capacity (TAOC), modified phosphomolybdenum method; details: concentration providing 0.500 of absorbance at 695 nm; mean ± SD, n = 3
Protocol: Volume of 0.4 mL of sample solution (50–1,000 μM) was mixed with 1.6 mL of reagent solution [0.6 M H2SO4, 28 mM Na3PO4, and 4 mM (NH4)2MoO4] and resulting mixtures were incubated at 95°C for 90 min. The cooled reaction mixtures were then centrifuged for 10 min (3,000 rpm). The absorbance of the supernatant solution was measured, 1 h after centrifugation, at 695 nm against reagent solution as blank. An increased absorbance in reading in both assays indicated increased antioxidant power, expressed as EC50 values (the sample concentration giving absorbance of 0.500 from the graph of absorbance at 700 nm or 695 nm against compound concentration) (Prieto et al., [1999]).

T-47D (breast) = assay: Antiproliferative activity, T-47D; format: cell-based, human
Protocol: as §2

[4] = mean, 95% CI, at least three experiments

C(=NNc1nc(-c2ccccc2)c[se]1)c1ccccc1 [Compound 1, 2-(2-benzylidenehydrazinyl)-4-phenyl-1,3-selenazole]
inhibition at 1 µM (MAO A): -6.8 ± 12.6% | IC50 (MAO A; [4]): > 10 µM | antiproliferative activity class SW1573 [1]: moderate activity (moderate activity (GI50 = 10–100 μM)) | GI50 [1]: 24 ± 8 µM | ORAC [2]: 0.75 ± 0.05 TE | inhibition at 1 µM (MAO B): 89.4 ± 1.5% | IC50 (MAO B; [4]): 0.252 µM | EC50 [3]: 648 ± 55 µM | melting point: 178 to 180 °C | GI50 (T-47D (breast); Homo sapiens, T47D): 6.4 ± 0.9 µM | antiproliferative activity class T-47D (T-47D (breast); T-47D): good activity (good activity (GI50 = 1–10 μM))

COc1ccc(-c2c[se]c(NN=Cc3ccccc3)n2)cc1 [Compound 1-OMe, 2-(2-benzylidenehydrazinyl)-4-(4-methoxyphenyl)-1,3-selenazole]
inhibition at 1 µM (MAO A): 32.4 ± 3.3% | GI50 [1]: 42 ± 7.7 µM | ORAC [2]: 0.74 ± 0.06 TE | inhibition at 1 µM (MAO B): 33 ± 11.6% | EC50 [3]: 548 ± 53 µM | melting point: 180 to 182 °C | GI50 (T-47D (breast); Homo sapiens, T47D, T-47D): > 100 µM

O=[N+]([O-])c1ccccc1C=NNc1nc(-c2ccccc2)c[se]1 [Compound 2, 2-(2-(2-nitrobenzylidene)hydrazinyl)-4-phenyl-1,3-selenazole]
inhibition at 1 µM (MAO A): 26.5 ± 3.7% | antiproliferative activity class SW1573 [1]: good activity (good activity (GI50 = 1–10 μM)) | GI50 [1]: 5.3 ± 0.6 µM | ORAC [2]: 0.82 ± 0.07 TE | inhibition at 1 µM (MAO B): 64.8 ± 6.1% | EC50 [3]: 357 ± 41 µM | melting point: 183 to 184 °C | GI50 (T-47D (breast); Homo sapiens, T47D, T-47D): ~10 µM | GI50 (T-47D (breast); T-47D): 12 ± 1.5 µM

Cc1ccc(-c2c[se]c(NN=Cc3ccccc3[N+](=O)[O-])n2)cc1 [Compound 2-Me, 2-(2-(2-nitrobenzylidene)hydrazinyl)-4-(p-tolyl)-1,3-selenazole]
inhibition at 1 µM (MAO A): 17.2 ± 1.9% | antiproliferative activity class SW1573 [1]: good activity (good activity (GI50 = 1–10 μM)) | GI50 [1]: 4.6 ± 1.2 µM | ORAC [2]: 0.77 ± 0.05 TE | inhibition at 1 µM (MAO B): 22.1 ± 8.7% | EC50 [3]: 416 ± 45 µM | melting point: 170 to 171 °C | GI50 (T-47D (breast); Homo sapiens, T47D, T-47D): ~10 µM | GI50 (T-47D (breast); T-47D): 13 ± 1.3 µM

COc1ccc(-c2c[se]c(NN=Cc3ccccc3[N+](=O)[O-])n2)cc1 [Compound 2-OMe, 4-(4-methoxyphenyl)-2-(2-(2-nitrobenzylidene)hydrazinyl)-1,3-selenazole]
inhibition at 1 µM (MAO A): 28 ± 4% | GI50 [1]: 46 ± 10 µM | ORAC [2]: 0.82 ± 0.07 TE | inhibition at 1 µM (MAO B): 35.9 ± 11.2% | EC50 [3]: 433 ± 39 µM | melting point: 165 to 166 °C | GI50 (T-47D (breast); Homo sapiens, T47D, T-47D): 36 ± 8.6 µM

O=[N+]([O-])c1cccc(C=NNc2nc(-c3ccccc3)c[se]2)c1 [Compound 3, 2-(2-(3-nitrobenzylidene)hydrazinyl)-4-phenyl-1,3-selenazole]
inhibition at 1 µM (MAO A): 32.7 ± 6.2% | GI50 [1]: 16 ± 4.8 µM | ORAC [2]: 0.90 ± 0.06 TE | inhibition at 1 µM (MAO B): 57.5 ± 11.4% | EC50 [3]: 325 ± 38 µM | melting point: 216 to 218 °C | GI50 (T-47D (breast); Homo sapiens, T47D, T-47D): 52 ± 13 µM

Cc1ccc(-c2c[se]c(NN=Cc3cccc([N+](=O)[O-])c3)n2)cc1 [Compound 3-Me, 2-(2-(3-nitrobenzylidene)hydrazinyl)-4-(p-tolyl)-1,3-selenazole]
inhibition at 1 µM (MAO A): 13.4 ± 2.4% | GI50 [1]: 18 ± 4.5 µM | ORAC [2]: 0.83 ± 0.05 TE | inhibition at 1 µM (MAO B): 7.4 ± 27% | EC50 [3]: 571 ± 45 µM | melting point: 203 to 206 °C | GI50 (T-47D (breast); Homo sapiens, T47D, T-47D): 46 ± 9.7 µM

COc1ccc(-c2c[se]c(NN=Cc3cccc([N+](=O)[O-])c3)n2)cc1 [Compound 3-OMe, 4-(4-methoxyphenyl)-2-(2-(3-nitrobenzylidene)hydrazinyl)-1,3-selenazole]
inhibition at 1 µM (MAO A): 31.2 ± 1.6% | antiproliferative activity class SW1573 [1]: good activity (good activity (GI50 = 1–10 μM)) | GI50 [1]: 8.4 ± 0.2 µM | ORAC [2]: 0.86 ± 0.07 TE | inhibition at 1 µM (MAO B): 23.8 ± 7.7% | EC50 [3]: 632 ± 50 µM | melting point: 201 to 203 °C | GI50 (T-47D (breast); Homo sapiens, T47D, T-47D): 67 ± 2.2 µM
